Key:
[1] = molecular target: Human KDR (residues 790-1356) (Homo sapiens (Human), UniProt P35968); test: Human KDR kinase assay, HTRF KinEase (Example B-2); type: biochemical; settings: protocol of Example B-2 (other compounds)
In short: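 Ten compound concentrations (3% DMSO final) were pre-plated, then KDR (790-1356) with biotinylated peptide in Mg/Mn/DTT buffer was added; ATP at Km (4.0 μM) started a 40 min room-temperature reaction. Detection used Eu-TK antibody and SA-XL665 in EDTA buffer; activity normalized to DMSO and reference inhibitor, IC50 by logistic fit.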

[2] = molecular target: Human MER (residues 528-999) (Homo sapiens (Human), UniProt Q12866); test: Human Mer kinase assay, HTRF KinEase (Example C-2); type: biochemical; settings: protocol of Example C-2 (other compounds)
In short: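 Recombinant MER 528-999 (1 ng/well) in buffer with 5 mM MgCl2 and 1 mM DTT was reacted with biotinylated peptide and ATP at Km (40 μM) for 60 min at room temperature. EDTA stop with SA-XL665 and Eu3+ TK antibody, then 665/620 nm HTRF read; IC50 from 4-parameter fit.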

[3] = molecular target: Met (phospho-Met, HGF-stimulated PC-3 prostate cancer cells) (Homo sapiens (Human), UniProt P08581); test: Met autophosphorylation ELISA in PC-3 cells (Example F); type: cell-based; settings: cellular activity; Met autophosphorylation ELISA in PC-3 cells; read-out: c-Met IC50
In short: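 Sandwich ELISA for phospho-Met (panTyr) in PC-3 lysates. Cells starved 3 h serum-free, compound 1 h (8-pt curve, 0.3% DMSO), HGF 100 ng/mL 10 min. 100% = HGF + DMSO; 0% = HGF + reference inhibitor. IC50 by 4-parameter fit.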

[4] = molecular target: Mer (phospho-Mer, MERTK-transfected 293A cells) (Homo sapiens (Human), UniProt Q12866); test: Mer autophosphorylation ELISA in transient transfected 293A cells (Example H); type: cell-based; settings: cellular activity; Mer autophosphorylation ELISA in transient transfected 293A cells
In short: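 IC50 from phospho-Mer ELISA of MERTK-transfected 293A cell lysates after 1 h treatment with serially diluted compound in serum-free medium.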

Human MER (residues 528-999), sequence (Q12866 528-999): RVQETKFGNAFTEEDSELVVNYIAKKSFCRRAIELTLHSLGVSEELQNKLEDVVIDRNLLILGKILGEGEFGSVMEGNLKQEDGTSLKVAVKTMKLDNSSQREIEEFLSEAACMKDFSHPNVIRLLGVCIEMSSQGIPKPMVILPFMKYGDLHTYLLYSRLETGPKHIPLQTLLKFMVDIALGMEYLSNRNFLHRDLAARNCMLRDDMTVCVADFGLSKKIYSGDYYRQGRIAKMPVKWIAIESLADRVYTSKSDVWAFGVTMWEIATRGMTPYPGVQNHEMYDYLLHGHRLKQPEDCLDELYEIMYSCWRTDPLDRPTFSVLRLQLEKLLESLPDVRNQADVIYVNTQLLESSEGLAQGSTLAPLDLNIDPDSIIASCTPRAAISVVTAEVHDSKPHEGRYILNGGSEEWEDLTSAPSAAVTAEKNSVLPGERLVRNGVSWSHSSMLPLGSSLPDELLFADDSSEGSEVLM
Human KDR (residues 790-1356), sequence (P35968 790-1356): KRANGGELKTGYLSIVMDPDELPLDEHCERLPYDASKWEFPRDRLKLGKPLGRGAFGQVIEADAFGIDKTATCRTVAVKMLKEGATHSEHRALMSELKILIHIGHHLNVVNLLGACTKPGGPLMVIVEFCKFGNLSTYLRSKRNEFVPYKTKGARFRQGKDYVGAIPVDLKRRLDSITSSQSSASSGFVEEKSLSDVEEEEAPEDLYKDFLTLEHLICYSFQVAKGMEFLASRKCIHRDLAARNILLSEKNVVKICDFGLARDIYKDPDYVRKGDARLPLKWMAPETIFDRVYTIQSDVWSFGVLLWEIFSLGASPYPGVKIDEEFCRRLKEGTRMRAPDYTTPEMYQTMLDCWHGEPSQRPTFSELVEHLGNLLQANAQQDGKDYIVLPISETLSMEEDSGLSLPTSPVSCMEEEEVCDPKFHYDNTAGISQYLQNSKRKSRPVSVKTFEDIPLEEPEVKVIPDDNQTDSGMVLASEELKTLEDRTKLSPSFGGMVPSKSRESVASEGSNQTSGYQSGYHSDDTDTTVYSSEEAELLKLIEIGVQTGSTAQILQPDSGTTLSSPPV
Mer (phospho-Mer, MERTK-transfected 293A cells), sequence (Q12866 21-999): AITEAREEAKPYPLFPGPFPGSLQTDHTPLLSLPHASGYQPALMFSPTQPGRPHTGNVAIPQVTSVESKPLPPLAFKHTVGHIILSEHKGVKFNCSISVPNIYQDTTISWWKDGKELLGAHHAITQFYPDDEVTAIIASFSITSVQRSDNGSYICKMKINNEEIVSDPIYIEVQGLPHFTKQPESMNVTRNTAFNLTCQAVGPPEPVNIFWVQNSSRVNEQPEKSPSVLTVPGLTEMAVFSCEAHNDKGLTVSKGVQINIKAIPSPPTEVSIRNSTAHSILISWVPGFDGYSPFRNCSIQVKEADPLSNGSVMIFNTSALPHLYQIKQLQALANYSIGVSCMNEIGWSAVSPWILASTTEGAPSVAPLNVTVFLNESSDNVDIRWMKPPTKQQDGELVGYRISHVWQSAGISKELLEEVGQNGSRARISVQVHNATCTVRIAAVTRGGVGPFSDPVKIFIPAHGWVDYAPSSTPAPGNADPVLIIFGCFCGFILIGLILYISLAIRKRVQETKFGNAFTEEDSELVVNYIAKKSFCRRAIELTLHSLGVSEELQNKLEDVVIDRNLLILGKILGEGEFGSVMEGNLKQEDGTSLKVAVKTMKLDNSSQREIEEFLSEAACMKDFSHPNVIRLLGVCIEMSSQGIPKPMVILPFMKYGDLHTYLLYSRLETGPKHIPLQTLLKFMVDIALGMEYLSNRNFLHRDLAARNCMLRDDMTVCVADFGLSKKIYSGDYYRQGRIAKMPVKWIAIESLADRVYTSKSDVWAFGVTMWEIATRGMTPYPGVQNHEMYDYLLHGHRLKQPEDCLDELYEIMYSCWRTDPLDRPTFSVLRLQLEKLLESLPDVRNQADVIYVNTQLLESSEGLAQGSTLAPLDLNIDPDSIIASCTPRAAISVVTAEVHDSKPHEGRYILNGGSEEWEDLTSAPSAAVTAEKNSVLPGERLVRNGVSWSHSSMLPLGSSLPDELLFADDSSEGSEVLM
Met (phospho-Met, HGF-stimulated PC-3 prostate cancer cells), sequence (P08581 25-1390): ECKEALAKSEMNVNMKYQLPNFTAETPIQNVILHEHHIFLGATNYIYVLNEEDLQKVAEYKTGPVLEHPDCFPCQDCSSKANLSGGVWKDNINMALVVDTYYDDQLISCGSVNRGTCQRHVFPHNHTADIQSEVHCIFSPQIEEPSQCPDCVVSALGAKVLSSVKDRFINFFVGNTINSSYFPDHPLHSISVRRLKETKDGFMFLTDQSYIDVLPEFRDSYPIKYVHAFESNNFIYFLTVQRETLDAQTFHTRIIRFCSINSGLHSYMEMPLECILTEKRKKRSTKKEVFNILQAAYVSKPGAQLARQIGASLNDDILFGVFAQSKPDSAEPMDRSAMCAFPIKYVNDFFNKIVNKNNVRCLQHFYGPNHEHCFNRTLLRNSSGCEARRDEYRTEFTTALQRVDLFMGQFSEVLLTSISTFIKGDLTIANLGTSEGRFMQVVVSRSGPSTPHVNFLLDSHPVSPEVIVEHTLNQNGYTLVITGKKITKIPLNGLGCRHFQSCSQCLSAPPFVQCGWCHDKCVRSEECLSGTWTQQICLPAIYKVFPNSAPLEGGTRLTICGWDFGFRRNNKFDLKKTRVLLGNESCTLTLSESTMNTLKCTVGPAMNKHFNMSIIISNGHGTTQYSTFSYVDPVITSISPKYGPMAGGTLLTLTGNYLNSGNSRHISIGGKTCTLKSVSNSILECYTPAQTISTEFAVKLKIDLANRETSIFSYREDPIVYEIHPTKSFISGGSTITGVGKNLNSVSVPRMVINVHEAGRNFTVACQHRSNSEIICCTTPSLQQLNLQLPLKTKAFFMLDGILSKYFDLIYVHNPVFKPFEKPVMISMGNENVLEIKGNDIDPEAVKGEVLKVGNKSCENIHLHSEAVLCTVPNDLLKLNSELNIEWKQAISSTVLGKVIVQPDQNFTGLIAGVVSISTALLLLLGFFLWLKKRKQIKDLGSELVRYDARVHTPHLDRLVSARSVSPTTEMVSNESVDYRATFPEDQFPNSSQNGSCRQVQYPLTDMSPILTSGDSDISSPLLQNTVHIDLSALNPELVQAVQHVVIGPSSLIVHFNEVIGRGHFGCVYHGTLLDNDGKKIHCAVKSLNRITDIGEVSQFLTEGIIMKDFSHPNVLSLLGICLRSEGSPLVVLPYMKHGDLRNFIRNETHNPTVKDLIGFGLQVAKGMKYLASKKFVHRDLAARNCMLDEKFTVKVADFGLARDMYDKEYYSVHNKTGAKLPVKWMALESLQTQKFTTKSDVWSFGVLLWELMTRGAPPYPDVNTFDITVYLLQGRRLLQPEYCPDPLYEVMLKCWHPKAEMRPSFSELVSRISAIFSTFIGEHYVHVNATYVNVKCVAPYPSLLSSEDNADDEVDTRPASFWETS

IC50 [1] [nM] | IC50 [2] [nM] | IC50 [3] [nM] | IC50 [4] [nM] | Structure (SMILES)
> 300 | < 100 | 100 to 300 | < 100 | COc1cnc2c(Oc3ccc(NC(=O)c4c(C)n(C)cc(-c5ccc(F)cc5)c4=O)cc3F)ccnc2c1 [Compound 239, N-[3-Fluoro-4-[(7-methoxy-1,5-naphthyridin-4-yl)oxy]phenyl]-5-(4-fluorophenyl)-1,2-dimethyl-4-oxopyridine-3-carboxamide]
> 300 | < 100 | < 100 | < 100 | CCn1cc(-c2ccc(F)cc2)c(=O)c(C(=O)Nc2ccc(Oc3ccnc4cc(OC)cnc34)c(F)c2)c1C [Compound 240, 1-Ethyl-N-[3-fluoro-4-[(7-methoxy-1,5-naphthyridin-4-yl)oxy]phenyl]-5-(4-fluorophenyl)-2-methyl-4-oxopyridine-3-carboxamide]
> 300 | < 100 | < 100 | < 100 | COc1cnc2c(Oc3ccc(NC(=O)c4cnc(C(F)(F)F)c(-c5ccc(F)cc5)c4O)cc3F)ccnc2c1 [Compound 241, N-[3-Fluoro-4-[(7-methoxy-1,5-naphthyridin-4-yl)oxy]phenyl]-5-(4-fluorophenyl)-4-hydroxy-6-(trifluoromethyl)pyridine-3-carboxamide]
< 100 | < 100 | < 100 | < 100 | COc1ccc2nccc(Oc3ccc(NC(=O)c4c(C)ncc(-c5ccc(F)cc5)c4O)cc3F)c2n1 [Compound 242, N-[3-Fluoro-4-[(6-methoxy-1,5-naphthyridin-4-yl)oxy]phenyl]-5-(4-fluorophenyl)-4-hydroxy-2-methylpyridine-3-carboxamide]
> 300 | < 100 | < 100 | < 100 | COc1ccc2nccc(Oc3ccc(NC(=O)c4c(C)n(C)cc(-c5ccc(F)cc5)c4=O)cc3F)c2n1 [Compound 243, N-[3-Fluoro-4-[(6-methoxy-1,5-naphthyridin-4-yl)oxy]phenyl]-5-(4-fluorophenyl)-1,2-dimethyl-4-oxopyridine-3-carboxamide]
100 to 300 | < 100 | < 100 | < 100 | COc1cnc2c(Oc3ccc(NC(=O)c4n[nH]c(C)c(-c5ccc(F)cc5)c4=O)cc3)ccnc2c1 [Compound 245, 5-(4-Fluorophenyl)-N-[4-[(7-methoxy-1,5-naphthyridin-4-yl)oxy]phenyl]-6-methyl-4-oxo-1H-pyridazine-3-carboxamide]
< 100 | < 100 | < 100 | < 100 | COc1cnc2c(Oc3ccc(NC(=O)c4n[nH]c(C)c(-c5ccc(F)cc5)c4=O)cc3F)ccnc2c1 [Compound 246, N-[3-Fluoro-4-[(7-methoxy-1,5-naphthyridin-4-yl)oxy]phenyl]-5-(4-fluorophenyl)-6-methyl-4-oxo-1H-pyridazine-3-carboxamide]
< 100 | < 100 | < 100 | < 100 | COc1cc2nccc(Oc3ccc(NC(=O)c4n[nH]c(C)c(-c5ccc(F)cc5C)c4=O)cc3)c2nc1OC [Compound 247, N-[4-[(6,7-Dimethoxy-1,5-naphthyridin-4-yl)oxy]phenyl]-5-(4-fluoro-2-methylphenyl)-6-methyl-4-oxo-1H-pyridazine-3-carboxamide]
> 300 | < 100 | < 100 | < 100 | COc1cnc2c(Oc3ccc(NC(=O)c4n[nH]c(C)c(-c5ccc(F)cc5C)c4=O)cc3)ccnc2c1 [Compound 248, 5-(4-Fluoro-2-methylphenyl)-N-[4-[(7-methoxy-1,5-naphthyridin-4-yl)oxy]phenyl]-6-methyl-4-oxo-1H-pyridazine-3-carboxamide]
> 300 | < 100 | < 100 | < 100 | COc1cnc2c(Oc3ccc(NC(=O)c4n[nH]c(C)c(-c5ccc(F)cc5C)c4=O)cc3F)ccnc2c1 [Compound 249A, N-[3-Fluoro-4-[(7-methoxy-1,5-naphthyridin-4-yl)oxy]phenyl]-5-(4-fluoro-2-methylphenyl)-6-methyl-4-oxo-1H-pyridazine-3-carboxamide]
> 300 | < 100 | < 100 | < 100 | COc1cnc2c(Oc3ccc(NC(=O)c4nn(C)c(C)c(-c5ccc(F)cc5)c4=O)cc3F)ccnc2c1 [Compound 250, N-[3-Fluoro-4-[(7-methoxy-1,5-naphthyridin-4-yl)oxy]phenyl]-5-(4-fluorophenyl)-1,6-dimethyl-4-oxopyridazine-3-carboxamide]
> 300 | < 100 | < 100 | < 100 | COc1cnc2c(Oc3ccc(NC(=O)c4nn(C)c(C)c(-c5ccc(F)cc5)c4=O)cc3)ccnc2c1 [Compound 251, 5-(4-Fluorophenyl)-N-[4-[(7-methoxy-1,5-naphthyridin-4-yl)oxy]phenyl]-1,6-dimethyl-4-oxopyridazine-3-carboxamide]
100 to 300 | < 100 | < 100 | < 100 | COCCOc1nc2c(Oc3ccc(NC(=O)c4n[nH]c(C)c(-c5ccc(F)cc5C)c4=O)cc3F)ccnc2cc1OC [Compound 252, N-[3-Fluoro-4-[[7-methoxy-6-(2-methoxyethoxy)-1,5-naphthyridin-4-yl]oxy]phenyl]-5-(4-fluoro-2-methylphenyl)-6-methyl-4-oxo-1H-pyridazine-3-carboxamide]
100 to 300 | < 100 | 100 to 300 | < 100 | COc1cnc2c(Oc3ccc(NC(=O)c4c(C)ncn(-c5ccc(F)cc5)c4=O)cc3F)ccnc2c1 [Compound 256, N-[3-Fluoro-4-[(7-methoxy-1,5-naphthyridin-4-yl)oxy]phenyl]-1-(4-fluorophenyl)-4-methyl-6-oxopyrimidine-5-carboxamide]
< 100 | < 100 | < 100 | < 100 | COc1cnc2c(Oc3ccc(NC(=O)c4c(C)nc(C)n(-c5ccc(F)cc5)c4=O)cc3F)ccnc2c1 [Compound 257, N-[3-Fluoro-4-[(7-methoxy-1,5-naphthyridin-4-yl)oxy]phenyl]-1-(4-fluorophenyl)-2,4-dimethyl-6-oxopyrimidine-5-carboxamide]
< 100 | < 100 | < 100 | < 100 | COc1cnc2c(Oc3ccc(NC(=O)c4c(C)nc(C)n(-c5ccc(F)cc5)c4=O)cc3)ccnc2c1 [Compound 258, 1-(4-Fluorophenyl)-N-[4-[(7-methoxy-1,5-naphthyridin-4-yl)oxy]phenyl]-2,4-dimethyl-6-oxopyrimidine-5-carboxamide]
100 to 300 | < 100 | < 100 | < 100 | COc1cc2nccc(Oc3ccc(NC(=O)c4cn(CC(F)(F)F)c(C)c(-c5ccc(F)cc5)c4=O)cc3F)c2cc1OC [Compound 259, N-[4-(6,7-Dimethoxyquinolin-4-yl)oxy-3-fluorophenyl]-5-(4-fluorophenyl)-6-methyl-4-oxo-1-(2,2,2-trifluoroethyl)pyridine-3-carboxamide]
> 300 | < 100 | < 100 | < 100 | COc1cnc2c(Oc3ccc(NC(=O)c4cn(CC(F)(F)F)c(C)c(-c5ccc(F)cc5)c4=O)cc3F)ccnc2c1 [Compound 261, N-[3-Fluoro-4-[(7-methoxy-1,5-naphthyridin-4-yl)oxy]phenyl]-5-(4-fluorophenyl)-6-methyl-4-oxo-1-(2,2,2-trifluoroethyl)pyridine-3-carboxamide]
< 100 | < 100 | < 100 | < 100 | COc1cc2nccc(Oc3ccc(NC(=O)c4ncc(C)n(-c5ccc(F)cc5)c4=O)cc3)c2nc1OC [Compound 262, N-[4-[(6,7-Dimethoxy-1,5-naphthyridin-4-yl)oxy]phenyl]-4-(4-fluorophenyl)-5-methyl-3-oxopyrazine-2-carboxamide]

Source: patent US12371428B2 (Exelixis, Inc., priority 2019, dated 2025)
